Assay results reported in patent US20200246284A1 (Academia Sinica, priority 2015, published 2020).
“And” between values parts separate entries of the source, which are not always exact repeats. Identical values can stand only once. Like-named read-outs stand apart in the source and are kept apart here.

Columns and labels:
[1] = test system: BMEC-hTert BM endothelium; format: cell-based, human
[2] = test system: HUVEC umbilical endothelium; assay: Cytotoxicity normal tissue 72 hr; format: cell-based, human
MS-5 adult BM stroma = assay: Cytotoxicity normal tissue 72 hr; format: cell-based, mouse
OP9 calvarial stroma = assay: Cytotoxicity normal tissue 72 hr; format: cell-based; details: OP9 (mouse)
CV1 renal fibroblasts = assay: Cytotoxicity normal tissue 72 hr; format: cell-based, African green monkey (Cercopithecus aethiops)
SET2 = assay: Cytotoxicity leukemia; format: cell-based; details: Homo sapiens, SET-2; SET2 JAK2-V617 mut
[3] = test system: lymphoma cell lines (DLBCL GBC and ABC, mantle cell lymphoma); assay: Cytotoxicity, panel of lymphoma cell lines (Tables 23, 24, 26); format: cell-based; details: Homo sapiens
[4] = Pharmacokinetics, IV bolus 10 mg/kg; format: in vivo, Sprague-Dawley rats; details: rat
Experimental: Serial blood samples were collected from the jugular vein at 0, 5, 10, 15, 30, 45, 60, 90, 120, 150, 180, 240, 300, 360 min after dosing. […] All pharmacokinetic analysis was carried out using the WinNonlin Standard Edition Version 1.0 (Scientific Consulting Inc., Apex, NC, USA).

[5] = Plasma protein binding, equilibrium dialysis; format: in vitro ADME; details: rat plasma, read-out: % bound (converted)
From the text: In drug discovery, the information on drug-plasma protein binding is valuable in evaluating and understanding, the absorption, distribution, metabolism and excretion (ADME)-related properties and the pharmacokinetic profile of drug candidates.

[6] = test system: AML-2 CD34+ cells in NSG mice; assay: Primary MLL-AF9+ pediatric AML (AML-2) xenograft; format: in vivo, mouse; details: 30 mg/kg Q10D2x from day 7
NECB1 = assay: Combination with BO-1055, MCL (Tables 28, 29); format: cell-based, human; details: read-out: IC50 single drug
Ly10 = details: human
Experimental: (§1) After 72 hours, the cultures were pulsed with Alamar Blue overnight, and the fluorescent intensity of resulted cultures was measured by a Synergy H1 plate-reader (BioTek Inc).

Pfeiffer = details: human
Experimental: as §1

Toledo = details: human
Experimental: as §1

in vitro = details: rat, microsomes
LY7 (OCH-Ly7) = assay: Cytotoxicity DLBCL; details: read-out: cytotoxicity IC50; LY7, DLBCL GCB
P-glycoprotein (P-gp) = P-glycoprotein (P-gp) (Homo sapiens, UniProt P08183); assay: P-gp mediated efflux in Caco-2 monolayers
[7] = test system: nude mice bearing prostate 22Rv/HL2; assay: Complete blood count, 22Rv/HL2 xenograft mice; details: 24 hrs after last treatment
[8] = test system: 16HBE SV40+ bronchial epithelium; format: cell-based, human
[9] = test system: BCI-NSI hTERT bronchial epithelium; assay: Cytotoxicity normal tissue 72 hr; format: cell-based, human; details: read-out: IC50
[10] = test system: BEAS2B SV40 bronchial epithelium; format: cell-based, human
[11] = test system: FTE-hTERT Fallopian epithelium; assay: Cytotoxicity normal tissue 72 hr; format: cell-based, human
BMMSC BM mesenchyme = assay: Cytotoxicity normal tissue 72 hr; format: cell-based, human
CALU-1 = format: cell-based, human
CALU-3 = format: cell-based, human
CL100T1 = format: cell-based, human
CL97 = format: cell-based, human
H125 = format: cell-based, human
H1650 = format: cell-based, human
H1666 = format: cell-based, human
H1755 = format: cell-based, human
PC9/gefb4 = format: cell-based, human
H647 = format: cell-based, human
A549 = format: cell-based, human
H249 = assay: Cytotoxicity SCLC 72 hr alamar blue; format: cell-based, human
H524 = assay: Cytotoxicity SCLC 72 hr alamar blue; format: cell-based, human
H562 = assay: Cytotoxicity SCLC 72 hr alamar blue; format: cell-based, human
H69 = assay: Cytotoxicity SCLC 72 hr alamar blue; format: cell-based, human
H82 = assay: Cytotoxicity SCLC 72 hr alamar blue; format: cell-based, human
[12] = male, Sprague-Dawley, plasma, IV 10 mg/kg, n=5
[13] = male, Sprague-Dawley, plasma, iv, 10 mg/kg, n=5

Chain of P-glycoprotein (P-gp) (P08183 whole entry): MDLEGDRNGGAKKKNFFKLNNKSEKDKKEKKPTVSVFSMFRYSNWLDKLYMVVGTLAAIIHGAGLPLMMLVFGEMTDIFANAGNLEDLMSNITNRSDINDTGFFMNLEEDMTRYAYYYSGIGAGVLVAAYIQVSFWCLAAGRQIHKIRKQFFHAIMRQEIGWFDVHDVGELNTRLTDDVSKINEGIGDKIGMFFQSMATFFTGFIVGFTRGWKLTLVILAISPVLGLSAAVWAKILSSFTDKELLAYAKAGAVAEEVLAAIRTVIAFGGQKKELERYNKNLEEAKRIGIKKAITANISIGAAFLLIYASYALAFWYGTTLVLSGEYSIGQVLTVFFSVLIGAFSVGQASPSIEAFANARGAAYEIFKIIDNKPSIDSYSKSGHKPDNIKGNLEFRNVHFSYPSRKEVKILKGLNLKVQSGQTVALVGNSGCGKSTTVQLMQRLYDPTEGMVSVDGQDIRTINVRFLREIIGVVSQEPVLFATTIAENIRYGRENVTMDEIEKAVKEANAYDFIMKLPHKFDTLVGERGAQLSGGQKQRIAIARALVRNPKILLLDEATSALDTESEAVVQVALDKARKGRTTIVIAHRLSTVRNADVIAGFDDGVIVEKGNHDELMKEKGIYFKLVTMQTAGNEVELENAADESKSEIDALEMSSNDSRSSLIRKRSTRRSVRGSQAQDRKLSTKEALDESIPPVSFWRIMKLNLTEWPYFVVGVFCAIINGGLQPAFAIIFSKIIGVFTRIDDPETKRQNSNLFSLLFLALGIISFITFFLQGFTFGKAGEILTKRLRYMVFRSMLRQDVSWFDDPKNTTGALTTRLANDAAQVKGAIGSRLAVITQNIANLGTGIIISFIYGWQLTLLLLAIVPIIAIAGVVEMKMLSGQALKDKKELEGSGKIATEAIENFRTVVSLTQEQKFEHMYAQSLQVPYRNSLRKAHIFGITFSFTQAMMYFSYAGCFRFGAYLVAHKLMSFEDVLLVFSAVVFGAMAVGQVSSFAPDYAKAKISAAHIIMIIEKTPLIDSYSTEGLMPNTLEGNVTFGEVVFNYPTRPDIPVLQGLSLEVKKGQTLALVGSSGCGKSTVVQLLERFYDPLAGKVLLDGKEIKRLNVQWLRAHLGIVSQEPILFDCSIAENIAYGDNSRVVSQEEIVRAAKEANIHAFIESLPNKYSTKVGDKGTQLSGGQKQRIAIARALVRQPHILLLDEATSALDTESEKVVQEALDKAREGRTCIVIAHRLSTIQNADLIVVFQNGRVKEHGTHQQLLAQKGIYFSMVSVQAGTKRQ

Question: With `CN(C)CCNC(=O)c1cccc(NC(=O)Nc2ccc(N(CCCl)CCCl)cc2)c1` [BO-1055, Ureidomustine] as the molecule, how does the IC50 ([1]; BMEC-hTert, 72 hr) read?
Answer: Its IC50 is no less than 10 µM.

Question: And the IC50 [2]?
Answer: Its IC50 is 50 µM.

Question: And the IC50 (MS-5 adult BM stroma; MS-5 (mouse), 72 hr)?
Answer: Its IC50 is no less than 10 µM.

Question: What about the IC50 (OP9 calvarial stroma) of the same molecule?
Answer: Its IC50 is no less than 10 µM.

Question: And the IC50 (CV1 renal fibroblasts; Chlorocebus sabaeus, Fibroblast, 72 h)?
Answer: The IC50 was greater than 100 µM.

Question: And the IC50 (SET2)?
Answer: Its IC50 is greater than 10 µM.

Question: What about the IC50 ([3]; lines with WT Bcl2) of the same molecule?
Answer: The IC50 was no less than 0.12 µM.

Question: What about the IC50 ([3]; two resistant lines) of the same molecule?
Answer: The IC50 was greater than 10 µM.

Question: What about the tissue distribution ([4]; IV 10 mg/kg) of the same molecule?
Answer: Its tissue distribution is “accumulated mainly in the kidney, with only a limited amount detected in the brain”.

Question: What about the Cl ([4]; IV 10 mg/kg, n=5, 10 mg/kg) of the same molecule?
Answer: Its Cl is 39.2 ± 10.6 mL/min per kg.

Question: And the AUC [4, 12]?
Answer: Its AUC is 4450 ng·h/mL.

Question: And the Cmax [4, 12]?
Answer: The Cmax was 13400 ± 6170 ng/mL.

Question: What about the clearance [4, 13] of the same molecule?
Answer: Its clearance is 39.4 ± 10.6 mL/min/kg.

Question: What about the half-life [4, 13] of the same molecule?
Answer: The half-life was 46.2 min.

Question: And the fraction unbound at 2 h, 20 μM ([5]; 2 h)?
Answer: The fraction unbound at 2 h, 20 μM was 0.0032.

Question: What about the fraction unbound at 4 h, 20 μM ([5]; 4 h) of the same molecule?
Answer: The fraction unbound at 4 h, 20 μM was 0.0031.

Question: And the fraction unbound at 6 h, 20 μM ([5]; 6 h)?
Answer: The fraction unbound at 6 h, 20 μM was 0.0799.

Question: What about the fraction unbound at 24 h, 20 μM ([5]; 24 h) of the same molecule?
Answer: The fraction unbound at 24 h, 20 μM was 0.248.

Question: What about the “survival longer than control” value [6] of the same molecule?
Answer: Its value is 48 days.

Question: And the IC50 (NECB1)?
Answer: Its IC50 is 7.42 µM and 7.78 µM and 8.52 µM.

Question: What about the IC50 (Ly10) of the same molecule?
Answer: Its IC50 is 0.12 µM.

Question: What about the IC50 (Pfeiffer) of the same molecule?
Answer: The IC50 was 3.87 µM.

Question: What about the IC50 (Toledo) of the same molecule?
Answer: Its IC50 is 8.95 µM.

Question: What about the half-life (in vitro) of the same molecule?
Answer: Its half-life is 29.7 min.

Question: And the IC50 (LY7 (OCH-Ly7))?
Answer: Its IC50 is 5.06 µM.

Question: What about the P-gp assessment (P-glycoprotein (P-gp)) of the same molecule?
Answer: Its P-gp assessment is “Possible P-gp liabilities”.

Question: And the BASO [7]?
Answer: The BASO was 0.06 10^3/μL.

Question: What about the EOS [7] of the same molecule?
Answer: The EOS was 0.14 10^3/μL.

Question: And the LYM [7]?
Answer: Its LYM is 1.52 10^3/μL.

Question: What about the MONO [7] of the same molecule?
Answer: Its MONO is 0.08 10^3/μL.

Question: And the NEU [7]?
Answer: The NEU was 0.83 10^3/μL.

Question: And the PLT [7]?
Answer: Its PLT is 195 10^3/μL.

Question: And the RBC [7]?
Answer: The RBC was 9.52 10^6/μL.

Question: And the WBC [7]?
Answer: The WBC was 2.98 10^3/μL.

Question: For `N.N.[Cl][Pt][Cl]` [Cisplatin], which IC50 [8] is on record?
Answer: Its IC50 is 3.6 µM.

Question: What about the IC50 [9] of the same molecule?
Answer: Its IC50 is 30 µM.

Question: What about the IC50 [10] of the same molecule?
Answer: Its IC50 is 4.1 µM.

Question: And the IC50 [11]?
Answer: Its IC50 is 100 µM.

Question: What about the IC50 ([1]; read-out: IC50) of the same molecule?
Answer: The IC50 was 20 µM.

Question: What about the IC50 ([2]; read-out: IC50) of the same molecule?
Answer: Its IC50 is 50 µM.

Question: What about the IC50 (BMMSC BM mesenchyme) of the same molecule?
Answer: The IC50 was 20 µM.

Question: What about the IC50 (MS-5 adult BM stroma; read-out: IC50) of the same molecule?
Answer: The IC50 was 22 µM.

Question: What about the IC50 (CV1 renal fibroblasts; read-out: IC50) of the same molecule?
Answer: The IC50 was 97.9 µM.

Question: What about the IC50 (CALU-1) of the same molecule?
Answer: The IC50 was no less than 20 µM.

Question: What about the IC50 (CALU-3) of the same molecule?
Answer: The IC50 was no less than 100 µM.

Question: What about the IC50 (CL100T1) of the same molecule?
Answer: Its IC50 is 2.8 µM.

Question: And the IC50 (CL97)?
Answer: The IC50 was less than 15 µM.

Question: What about the IC50 (H125) of the same molecule?
Answer: The IC50 was 1.5 µM.

Question: What about the IC50 (H1650) of the same molecule?
Answer: Its IC50 is 7.51 µM.

Question: And the IC50 (H1666)?
Answer: The IC50 was no less than 20 µM.

Question: And the IC50 (H1755)?
Answer: The IC50 was no less than 15 µM.

Question: And the IC50 (PC9/gefb4)?
Answer: The IC50 was no less than 35 µM.

Question: And the IC50 (H647)?
Answer: Its IC50 is 8.75 µM.

Question: And the IC50 (A549)?
Answer: The IC50 was no less than 30 µM.

Question: And the IC50 (H249)?
Answer: Its IC50 is 1.51 µM.

Question: And the IC50 (H524)?
Answer: Its IC50 is 0.41 µM.

Question: And the IC50 (H562)?
Answer: The IC50 was 1.39 µM.

Question: What about the IC50 (H69) of the same molecule?
Answer: Its IC50 is 3.42 µM.

Question: What about the IC50 (H82) of the same molecule?
Answer: The IC50 was no less than 20 µM.
